The target in one assay is T1, Human recombinant renin (Homo sapiens, UniProt P00797).
T1 construct: purchased Proteos
T1 sequence (P00797 67-406): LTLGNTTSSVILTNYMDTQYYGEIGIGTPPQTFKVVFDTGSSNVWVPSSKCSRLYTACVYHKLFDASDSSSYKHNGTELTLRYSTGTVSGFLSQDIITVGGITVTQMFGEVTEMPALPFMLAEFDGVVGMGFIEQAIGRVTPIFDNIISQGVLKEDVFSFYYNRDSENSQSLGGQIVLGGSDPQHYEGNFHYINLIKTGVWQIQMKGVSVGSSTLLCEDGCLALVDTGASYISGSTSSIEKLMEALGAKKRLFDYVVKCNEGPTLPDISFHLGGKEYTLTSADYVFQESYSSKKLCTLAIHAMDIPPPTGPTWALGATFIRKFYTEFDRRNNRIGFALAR
Put plainly: Inhibition of human recombinant renin (QFRET, buffer). Format: biochemical. The following applies: buffer: 50 mM MOPS pH 7.4, 100 mM NaCl, 0.002% Tween 20; 37° C., 3 hours. The method in brief:
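Renin at […] final in 50 mM MOPS pH 7.4, 100 mM NaCl, 0.002% Tween 20, with compounds diluted 50-fold from DMSO and 6 μM internally quenched DNP peptide substrate. Incubation 3 h at 37 °C; fluorescence (ex 328/em 388 nm) at 3 h minus t=0 background; IC50 derived.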

The target in assay [1] is T2, recombinant renin in human plasma (Homo sapiens, UniProt P00797).
T2 construct: purchased Proteos
T2 sequence (P00797 67-406): T1 sequence (P00797 67-406)
Put plainly: Inhibition of renin in human plasma (QFRET, plasma). The assay is classed as biochemical. Particulars: human EDTA plasma with 1 nM recombinant renin added; 37° C., 1 hour. The method in brief: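 Cleared human EDTA plasma spiked with 1 nM recombinant renin. Compounds preincubated with the plasma for 10 min at 37 °C, then 6 µM internally quenched FAM peptide added (final 342 mM Tris pH 7.2, 23 mM EDTA) and incubated for 1 h at 37 °C. Fluorescence (490/520 nm) at 1 h minus t=0 gave IC50.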

By IC50 is commonly meant the concentration needed to halve the response being measured.

Turning to `CC(=O)NCCc1ccccc1-c1onc([C@H]2CNCC[C@]2(O)c2ccc(C)c(F)c2)c1Br` [Structure 105], the IC50 at Human recombinant renin amounted to 4.9 nM; in assay [1], 29 nM.
As for `CC(=O)NCCc1ccccc1-c1onc([C@H]2CNCC[C@]2(O)c2ccc(F)c(F)c2)c1Cl` [Structure 104], the IC50 at Human recombinant renin is 0.7 nM; in assay [1], 1.9 nM.
Turning to `COC[C@H](C)COCc1ccc([C@@]2(O)CCNC[C@@H]2c2ccc(-c3ccccc3CCNC(C)=O)cc2C)cc1` [Structure 129], the half-maximal inhibitory concentration (IC50) was 0.05 nM at Human recombinant renin and 0.44 nM in assay [1].
On the same counts, the results for `CC(=O)NCCc1ccccc1-c1onc([C@H]2CNCC[C@]2(OC(N)=O)c2ccc(F)c(F)c2)c1Br` [Structure 118] are 0.22 nM and 0.55 nM.
`CC(=O)NCCc1ccccc1-c1ccc([C@H]2CNCC[C@@H]2c2cccnc2)c(C)c1` [Structure 4]: the figures for the half-inhibitory concentration (IC50) (at Human recombinant renin; in assay [1]) were 6.1 nM and 28 nM, respectively.
Regarding `CC(=O)NCCc1ccccc1-c1onc([C@H]2CNCC[C@]2(O)c2ccc(F)c(F)c2)c1C(C)O` (stereo partly drawn) [Structure 85], the concentration for half-maximal inhibition (IC50) on Human recombinant renin was 4.3 nM; in assay [1], 4.5 nM.
On to `COCCCc1cccc(C)c1-c1ccc([C@H]2CNCC[C@@H]2c2cccnc2)c(C)c1` (racemic) [Structure 12], for which the IC50 came out at 10 nM on Human recombinant renin and 150 nM in assay [1].
For `Cc1cc(-c2ccccc2CCNC(=O)C(C)C)ccc1[C@H]1CNCC[C@@H]1c1cc(F)cc(F)c1` (racemic) [Structure 21], in that order: 14 nM and 1150 nM.
On the same counts, the results for `COCCCc1ccccc1-c1ccc([C@H]2CNCC[C@@H]2c2ccccc2)c(C)c1` (racemic) [Structure 1] are 620 nM and over 10000 nM.
For the compound `CC(=O)NCCc1ccccc1-c1ccc([C@H]2CNCC[C@@H]2c2cccnc2N)c(Cl)c1` (racemic) [Structure 45], the 50% inhibitory concentration (IC50) at Human recombinant renin amounted to 710 nM; in assay [1], 4580 nM.
On the same counts, the results for `Cc1cc(-c2ccccc2COc2ccccc2)ccc1[C@H]1CNCC[C@@H]1c1cc(F)cc(F)c1` (racemic) [Structure 35] are 3.8 nM and 1890 nM.
For the compound `CC(=O)NCCc1ccccc1-c1onc([C@H]2CNCC[C@@H]2c2ccc(OCCOc3c(Cl)cc(C)cc3Cl)cc2)c1C(C)O` (stereo partly drawn) [Structure 109], the values for the IC50 (on Human recombinant renin; in assay [1]) were 0.07 nM and 1.2 nM, respectively.
On the same counts, the results for `COCCCc1ccccc1-c1ccc([C@H]2CNCC[C@@H]2c2cccnc2)c(C)c1` (racemic) [Structure 2] are 18 nM and 310 nM.
With `Cc1cc(-c2ccccc2CCNC(=O)OCc2ccccc2)ccc1[C@H]1CNCC[C@@H]1c1cc(F)cc(F)c1` (racemic) [Structure 25], the IC50 stood at 18 nM at Human recombinant renin and 5470 nM in assay [1].
On to `CC(=O)NCCc1ccccc1-c1onc([C@H]2CNCC[C@]2(O)c2ccc(COCCOC(C)C)cc2)c1Br` [Structure 115], for which the IC50 on Human recombinant renin was 6.5 nM; in assay [1] it was 16 nM.
`COC[C@H](C)COCc1ccc([C@@]2(O)CCNC[C@@H]2c2ccc(-c3ccccc3CCNC(=O)OC)cc2C)cc1` [Structure 127]: the IC50 at Human recombinant renin worked out at 0.03 nM; in assay [1], 1.3 nM.
Take `Cc1cc(-c2ccccc2CCNC(=O)CC(F)(F)F)ccc1[C@H]1CNCC[C@@H]1c1cc(F)cc(F)c1` (racemic) [Structure 33]: the figures for the half-maximal inhibitory concentration (IC50) (on Human recombinant renin; in assay [1]) were 2.1 nM and 120 nM, respectively.
Turning to `COCCC[C@H](CNC(C)=O)c1ccccc1-c1onc([C@H]2CNCC[C@]2(O)c2ccc(F)c(F)c2)c1Br` [Structure 98], the half-inhibitory concentration (IC50) on Human recombinant renin worked out at 0.58 nM; in assay [1], 2.2 nM.
For `O=C(CO)NCCc1ccccc1-c1ccc([C@H]2CNCC[C@@H]2c2ccc(F)c(F)c2)c(Cl)c1` (racemic) [Structure 43], in that order: 0.26 nM and 3.5 nM.
For `Cc1cc(-c2ccccc2CCNC(=O)C2CC2)ccc1[C@H]1CNCC[C@@H]1c1cc(F)cc(F)c1` (racemic) [Structure 31], in that order: 4.4 nM and 130 nM.
On the same counts, the results for `CC(=O)NCCc1ccccc1-c1onc([C@H]2CNCC[C@]2(OCc2c[nH]nn2)c2ccc(F)c(F)c2)c1Br` [Structure 90] are 0.63 nM and 4.4 nM.
With `CC(O)c1c([C@H]2CNCC[C@]2(O)c2ccc(F)c(F)c2)noc1-c1c(Cl)cccc1Cl` (stereo partly drawn) [Structure 78], the IC50 on Human recombinant renin is 1.8 nM; in assay [1] it was 24 nM.
Turning to `CC(=O)NCCc1cc(C(F)(F)F)ccc1-c1ccc([C@H]2CNCC[C@@H]2c2ccc(F)c(F)c2)c(Cl)c1` (racemic) [Structure 47], the IC50 on Human recombinant renin amounted to 0.59 nM; in assay [1] it was 140 nM.
On the same counts, the results for `O[C@]1(c2ccc(F)c(F)c2)CCNC[C@@H]1c1cc(-c2c(Cl)cccc2Cl)no1` [Structure 68] are 1210 nM and over 9500 nM.
Take `O[C@]1(c2ccc(F)c(F)c2)CCNC[C@@H]1c1onc(-c2cccc(Cl)c2Cl)c1Br` [Structure 71]: the half-inhibitory concentration (IC50) worked out at 0.21 nM on Human recombinant renin and 7.8 nM in assay [1].
Regarding `CC(=O)NCCc1ccccc1-c1onc([C@H]2CNCC[C@@H]2c2ccc(F)c(F)c2)c1Br` [Structure 107], the IC50 at Human recombinant renin worked out at 0.26 nM; in assay [1] it was 1.2 nM.
On the same counts, the results for `Cn1c(-c2ccccc2)cnc1[C@H]1CNCC[C@]1(O)c1ccc(F)c(F)c1` [Structure 92] are 1990 nM and over 28000 nM.
On the same counts, the results for `CC(=O)NCCc1ccccc1-c1ccc([C@H]2CNCC[C@]2(O)c2ccc(F)c(F)c2)c(C)c1` (racemic) [Structure 51] are 0.5 nM and 5 nM.
On the same counts, the results for `CCOC(=O)NCCc1ccccc1-c1ccc([C@H]2CNCC[C@@H]2c2ccn(C)c(=O)c2)c(Cl)c1` (racemic) [Structure 63] are 16 nM and 24 nM.
With `CC(=O)NCCc1ccccc1-c1ccc([C@H]2CNCC[C@@H]2c2cccnc2)c(Cl)c1` [Structure 13], the IC50 at Human recombinant renin is 1.5 nM; in assay [1], 4.1 nM.
With `O[C@]1(c2ccc(F)c(F)c2)CCNC[C@@H]1c1cn(-c2ccc(F)cc2Br)nn1` [Structure 91], the values for the IC50 (on Human recombinant renin; in assay [1]) were 2900 nM and 9470 nM, respectively.
On the same counts, the results for `COCCCc1ccccc1-c1ccc([C@H]2CNCC[C@]2(O)c2cccnc2)c(C)c1` (racemic) [Structure 40] are 47 nM and 1140 nM.
On the same counts, the results for `COCCCc1ccccc1-c1ccc([C@H]2CNCC[C@@H]2c2cccc3nc[nH]c23)c(Cl)c1` (racemic) [Structure 10] are 3.5 nM and 2060 nM.
Consider `O[C@]1(c2ccc(F)c(F)c2)CCNC[C@@H]1c1onc(-c2c(Cl)cccc2Cl)c1Br` [Structure 70], for which the IC50 on Human recombinant renin was 3.7 nM; in assay [1], 130 nM.
With `CC(=O)NCCc1cc(F)ccc1-c1onc([C@H]2CNCC[C@]2(O)c2ccc(F)c(F)c2)c1Br` [Structure 86], the values for the IC50 (on Human recombinant renin; in assay [1]) were 0.14 nM and 0.68 nM, respectively.
In the case of `O[C@]1(c2ccc(F)c(F)c2)CCNC[C@@H]1c1cc(-c2ccc(F)cc2Br)no1` [Structure 67], the figures for the IC50 (on Human recombinant renin; in assay [1]) were 400 nM and 8650 nM, respectively.
For `COC(=O)NCCc1ccccc1-c1ccc([C@H]2CNCC[C@@H]2c2ccn(C)c(=O)c2)c(Cl)c1` (racemic) [Structure 62], in that order: 4.2 nM and 4.9 nM.
Take `COC[C@H](C)COCc1ccc([C@@]2(O)CCNC[C@@H]2c2ccc(-c3ccccc3CCNC(C)=O)cc2C)nc1` [Structure 130]: the concentration for half-maximal inhibition (IC50) on Human recombinant renin stood at 0.075 nM; in assay [1], 3.8 nM.
On to `O=C(CO)NCCc1ccccc1-c1onc([C@H]2CNCC[C@]2(O)c2ccc(F)c(F)c2)c1Br` [Structure 88], for which the half-inhibitory concentration (IC50) on Human recombinant renin came out at 0.38 nM; in assay [1], 1 nM.
`CC(=O)NCCc1ccccc1-c1onc([C@H]2CNCC[C@]2(O)c2ccc(COCC(F)(F)COC(C)C)cc2)c1Br` [Structure 112]: the half-inhibitory concentration (IC50) on Human recombinant renin was 0.44 nM; in assay [1], 1.7 nM.
As to `COCCCc1ccccc1-c1cc(C)c([C@H]2CNCC[C@@H]2c2ccc(Cl)c(F)c2)cn1` (racemic) [Structure 50], the figures for the half-inhibitory concentration (IC50) (at Human recombinant renin; in assay [1]) were 1.5 nM and 230 nM, respectively.
In the case of `COCc1ccc2cccc(-c3ccc([C@H]4CNCC[C@@H]4c4cc(F)cc(F)c4)c(C)c3)c2c1` (racemic) [Structure 30], the values for the IC50 (on Human recombinant renin; in assay [1]) were 100 nM and 11300 nM, respectively.
Regarding `CO[C@]1(c2ccc(F)c(F)c2)CCNC[C@@H]1c1noc(-c2ccccc2CCNC(C)=O)c1Br` [Structure 82], the results for the IC50 (on Human recombinant renin; in assay [1]) were 0.16 nM and 1.2 nM, respectively.
As for `COCCCc1ccccc1-c1ccc([C@H]2CNCC[C@@H]2c2ccn(C)c(=O)c2)c(Cl)c1` (racemic) [Structure 57], the IC50 came out at 6.4 nM at Human recombinant renin and 80 nM in assay [1].
On the same counts, the results for `COCC(=O)NCCc1ccccc1-c1ccc([C@H]2CNCC[C@@H]2c2ccn(C)c(=O)c2)c(Cl)c1` (racemic) [Structure 64] are 110 nM and 77 nM.
